Laboratory results from patent US6630169B1, “Particulate delivery systems and methods of use” (priority 2000, dated 2003).
Residues, ends and D or L forms follow the SMILES beside them. *: point of attachment. 5FAM = O=C1OC2(c3ccc(O)cc3Oc3cc(O)ccc32)c2ccc(C(=O)*)cc21

Assay: Bioavailability of fluorescent-labeled HA PulmoSpheres, plasma peptide by fluorometry
Type: in vivo
Conditions: mice
Description: A formulation comprising fluoroscein-HA peptide (20% wt/wt) PulmoSpheres (f-HA-Pul) prepared as in Example IV was suspended in perflubron. Metofane anesthetized mice were inoculated intranasally (i.n.) with a […] volume of f-HA-Pul in perflubron, corresponding to […] of peptide dose. Blood samples were collected by ocular bleeding in heparin-treated tubes, the plasma was separated and the concentration of the peptide was measured by fluorometry. As a control, an intravenous i.v.) inoculation of […] of f-HA peptide in […] of sterile saline (n=4 for all groups) was used.

In the case of `CC[C@H](C)[C@H](NC(=O)[C@H](CCC(=O)O)NC(=O)[C@H](Cc1ccccc1)NC(=O)[C@H](CCCNC(=N)N)NC(=O)[C@H](CCC(=O)O)NC(=O)[C@H](Cc1ccccc1)NC(=O)[C@H](CO)NC(=O)c1ccc2c(c1)C(=O)OC21c2ccc(O)cc2Oc2cc(O)ccc21)C(=O)N[C@@H](Cc1ccccc1)C(=O)N1CCC[C@H]1C(=O)N[C@@H](CCCCN)C(=O)N[C@@H](CCC(=O)O)C(=O)O` [f-HA peptide] (5FAM-SFERFEIFPKE-OH; N-terminus and C-terminus assumed), the “total clearance (elimination via urine)” value is reported as at most 6 h, the Tmax (mouse, in vivo, i.n., f-HA-Pul in perflubron) is reported as 20 min and the bioavailability (mouse, in vivo, i.n., f-HA-Pul in perflubron, vs i.v. f-HA peptide in saline, read-out: absolute bioavailability) is reported as about 5%.
